Measurements as given in ChEMBL document CHEMBL1147807, “Identification of 2-acylaminothiophene-3-carboxamides as potent inhibitors of FLT3” (Bioorg Med Chem Lett, 2006).

Tests used:
[1] = target: T1, Receptor-type tyrosine-protein kinase FLT3 (Homo sapiens, UniProt P36888); assay: Inhibition of FLT3
T1 sequence (P36888 whole entry): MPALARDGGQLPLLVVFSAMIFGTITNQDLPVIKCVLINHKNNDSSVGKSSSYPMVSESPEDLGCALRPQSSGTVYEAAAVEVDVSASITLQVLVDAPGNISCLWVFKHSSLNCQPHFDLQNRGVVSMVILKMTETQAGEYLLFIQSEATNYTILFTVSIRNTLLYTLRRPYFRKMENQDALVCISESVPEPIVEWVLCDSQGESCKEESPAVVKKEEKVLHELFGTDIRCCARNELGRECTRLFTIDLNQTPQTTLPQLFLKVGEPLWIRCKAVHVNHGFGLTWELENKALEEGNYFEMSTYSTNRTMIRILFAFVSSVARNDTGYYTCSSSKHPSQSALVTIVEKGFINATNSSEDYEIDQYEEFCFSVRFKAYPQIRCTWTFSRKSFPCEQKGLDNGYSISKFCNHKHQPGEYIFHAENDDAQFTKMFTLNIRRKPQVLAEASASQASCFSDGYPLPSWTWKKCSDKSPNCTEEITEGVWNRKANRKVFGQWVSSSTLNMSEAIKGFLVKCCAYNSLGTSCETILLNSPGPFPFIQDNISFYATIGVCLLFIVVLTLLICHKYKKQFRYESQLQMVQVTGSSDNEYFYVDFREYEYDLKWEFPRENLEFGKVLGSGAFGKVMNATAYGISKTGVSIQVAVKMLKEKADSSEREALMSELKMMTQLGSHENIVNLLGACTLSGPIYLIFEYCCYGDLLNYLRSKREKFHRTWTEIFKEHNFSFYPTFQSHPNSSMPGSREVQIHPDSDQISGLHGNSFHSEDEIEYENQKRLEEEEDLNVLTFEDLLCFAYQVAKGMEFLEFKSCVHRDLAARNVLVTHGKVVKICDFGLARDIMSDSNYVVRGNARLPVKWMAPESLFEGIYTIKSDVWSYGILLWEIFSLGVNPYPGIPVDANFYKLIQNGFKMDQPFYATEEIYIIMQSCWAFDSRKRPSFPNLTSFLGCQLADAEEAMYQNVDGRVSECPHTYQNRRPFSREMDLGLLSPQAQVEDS

MV4-11 = assay: Antiproliferative activity against human MV4-11 cells

Row | IC50 [1] [µM] | IC50 (MV4-11) [µM] | Structure (SMILES)
1 | 1.1 | 2 | NC(=O)c1c(NC(=O)c2cccnc2)sc2c1CCCC2
2 |  | > 10 | COc1ccc(CCC(=O)Nc2sc3c(c2C(N)=O)CCCC3)cc1
3 |  | 1.4 | NC(=O)c1c(NC(=O)c2ccc(Cl)cc2)sc2c1CCCC2
4 |  | 1.5 | COc1cccc(C(=O)Nc2sc3c(c2C(N)=O)CCCC3)c1
5 | > 10 |  | NC(=O)c1c(NC(=O)c2ccc(Oc3ccccc3)cc2)sc2c1CCCC2
6 |  | 2.4 | COc1ccc(C(=O)Nc2sccc2C(N)=O)cc1OC
7 |  | 1.5 | NC(=O)c1c(NC(=O)c2ccc(Br)cc2)sc2c1CCCC2
8 |  | 1.6 | CC(C)(C)c1ccc(C(=O)Nc2sc3c(c2C(N)=O)CCCC3)cc1
9 |  | 0.33 | COc1ccc(C(=O)Nc2sc(C)c(C)c2C(N)=O)cc1OC
10 |  | > 10 | NC(=O)c1c(NC(=O)Cc2ccccc2)sc2c1CCCC2
11 |  | 10 | Cc1ccc(/C=C/C(=O)Nc2sc3c(c2C(N)=O)CCCC3)o1
12 | > 10 |  | NC(=O)c1c(NC(=O)C2CCCCC2)sc2c1CCCC2
13 |  | 0.48 | NC(=O)c1c(NC(=O)/C=C/c2ccco2)sc2c1CCCC2
14 |  | 0.35 | NC(=O)c1c(NC(=O)c2ccccn2)sc2c1CCCC2
15 | 1.3 | 1.2 | NC(=O)c1c(NC(=O)C2CC2)sc2c1CCCC2
16 |  | 0.41 | COc1ccc(C(=O)Nc2sc3c(c2C(N)=O)CCC3)cc1OC
17 | > 10 |  | COc1cc(C(=O)Nc2sc3c(c2C(N)=O)CCCC3)cc(OC)c1OC
18 |  | 0.71 | Cc1ccc(C(=O)Nc2sc3c(c2C(N)=O)CCCC3)cc1C
19 |  | 1.8 | CC(=O)c1ccc(C(=O)Nc2sc3c(c2C(N)=O)CCCC3)cc1
20 | > 10 |  | CC(C)C(=O)Nc1sc2c(c1C(N)=O)CCCC2

Row | IC50 [1] [µM] | IC50 (MV4-11) [µM] | Structure (SMILES)
21 |  | 1.3 | COc1ccc(C(=O)Nc2sc3c(c2C(N)=O)CCCC3)cc1
22 |  | 2 | COc1ccc(/C=C/C(=O)Nc2sc3c(c2C(N)=O)CCCC3)cc1OC
23 |  | 1.5 | NC(=O)c1c(NC(=O)c2ccco2)sc2c1CCCC2
24 | > 100 |  | COc1ccc(C(=O)Nc2sc3c(c2C(N)=O)CCCCCC3)cc1OC
25 | > 10 |  | NC(=O)c1c(NC(=O)COc2ccccc2)sc2c1CCCC2
26 |  | 0.45 | Cc1ccc(C(=O)Nc2sc3c(c2C(N)=O)CCCC3)cc1
27 |  | 2.7 | CC(C)c1ccc(/C=C/C(=O)Nc2sc3c(c2C(N)=O)CCCC3)cc1
28 |  | 0.89 | NC(=O)c1c(NC(=O)c2ccc3c(c2)OCO3)sc2c1CCCC2
29 | > 10 |  | NC(=O)c1c(NC(=O)c2ccccc2Cl)sc2c1CCCC2
30 |  | 0.53 | NC(=O)c1c(NC(=O)/C=C/c2ccccc2)sc2c1CCCC2
31 | 0.25 | 1.8 | COc1ccc(/C=C/C(=O)Nc2sc3c(c2C(N)=O)CCCC3)cc1
32 |  | 2.2 | NC(=O)c1c(NC(=O)c2cccc(Cl)c2)sc2c1CCCC2
33 |  | 3.2 | Cc1cccc(C(=O)Nc2sc3c(c2C(N)=O)CCCC3)c1
34 | 0.36 | > 10 | NC(=O)c1c(NC(=O)c2ccccc2)sc2c1CCCC2
35 | > 10 | 3.8 | NC(=O)c1c(NC(=O)CSc2ccccc2)sc2c1CCCC2
36 | 2 |  | CC(=O)Nc1sc2c(c1C(N)=O)CCCC2
37 | > 10 |  | NC(=O)c1c(NC(=O)c2ccc(-c3ccccc3)cc2)sc2c1CCCC2
38 | 0.11 | 2.1 | NC(=O)c1c(NC(=O)c2ccncc2)sc2c1CCCC2
39 |  | > 10 | COc1cc(OC)cc(C(=O)Nc2sc3c(c2C(N)=O)CCCC3)c1
40 | > 10 |  | COc1ccccc1C(=O)Nc1sc2c(c1C(N)=O)CCCC2
